The target of this experiment is T1, PDK-1 (Homo sapiens, UniProt O15530).
T1 sequence (O15530 1-556): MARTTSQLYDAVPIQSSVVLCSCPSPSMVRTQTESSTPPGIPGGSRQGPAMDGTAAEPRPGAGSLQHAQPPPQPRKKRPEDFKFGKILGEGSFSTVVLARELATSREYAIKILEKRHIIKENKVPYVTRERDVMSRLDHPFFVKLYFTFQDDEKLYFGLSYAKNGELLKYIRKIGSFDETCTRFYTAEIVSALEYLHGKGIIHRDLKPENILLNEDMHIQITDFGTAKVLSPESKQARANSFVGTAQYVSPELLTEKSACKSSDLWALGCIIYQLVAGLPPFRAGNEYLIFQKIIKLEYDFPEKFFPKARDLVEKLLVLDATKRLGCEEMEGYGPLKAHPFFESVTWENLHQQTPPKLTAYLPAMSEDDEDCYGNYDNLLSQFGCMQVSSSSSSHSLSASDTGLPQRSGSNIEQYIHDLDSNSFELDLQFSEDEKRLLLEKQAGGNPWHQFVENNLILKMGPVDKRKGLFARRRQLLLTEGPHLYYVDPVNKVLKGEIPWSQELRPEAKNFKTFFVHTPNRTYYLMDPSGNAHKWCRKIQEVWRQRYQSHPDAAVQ
The experiment is described as follows: In vitro PDK-1 inhibition ELISA assay (phosphorylation of SGK1 on Threonine 256). The format is biochemical. The conditions noted are these: PDK-1 phosphorylates 6xHIS tagged SGK1, 17 minutes reaction, chemiluminescent detection. The method, then:
The ability of illustrative Dibenzonaphthyridine Derivatives to inhibit PDK-1 in vitro can be determined using the ELISA assay as decribed in Kobayashi et al., Biochem. J. 339:319-328 (1999) and Park et al., EMBO J. 18:3024-3033 (1999).
In this in vitro assay, PDK-1 kinase phosphorylates SGK1 on Threonine 256. After 17 minutes, the reaction is quenched via the addition of urea. The 6×HIS tagged SGK1 is then bound to 96 well Ni-NTA HisSorb plates and the phosphorylated SGK1 is detected using rabbit derived anti-phospho SGK antibody as the primary antibody and HRP coupled anti-rabbit antibody as the secondary antibody. HRP is then detected using a Chemiluminescent Substrate.
In general terms: An ELISA detects its analyte on a solid surface through an enzyme-linked reagent.

As a reminder, the IC50 is the concentration at which inhibition is half-maximal. In turn, `COc1cc2ncc3c(OC)nc4c(C)c(OC)ccc4c3c2cc1OC` [Compound I-1, 2,3,7,10-tetramethoxy-9-methyldibenzo[c,f]-2,7-naphthyridine] showed an IC50 of 23800 nM. As for `COc1cc2ncc3cnc4c(C)c(N)ccc4c3c2cc1OC` [Compound I-3, 10,11-dimethoxy-4-methyldibenzo[c,f]-2,7-naphthyridin-3-amine], the concentration for half-maximal inhibition (IC50) worked out at 2500 nM.

`COc1cc2ncc3c(N)nc4ccccc4c3c2cc1OC` [Ib-1, 10,11-dimethoxydibenzo[c,f]-2,7-naphthyridin-6-amine] came in with an IC50 of 2400 nM. The same measure for `COc1cc2ncc3c(N)nc4c(C)c(N)ccc4c3c2cc1OC` [Ib-2, 10,11-dimethoxy-4-methyldibenzo[c,f]-2,7-naphthyridine-3,6-diamine]: 93 nM; for `CCOc1cc2ncc3c(N)nc4c(C)c(N)ccc4c3c2cc1OCC` [Ib-3, 10,11-diethoxy-4-methyldibenzo[c,f]-2,7-naphthyridine-3,6-diamine]: 273 nM; for `COc1cc2c(cc1F)ncc1c(N)nc3c(C)c(N)ccc3c12` [Ib-4, 10-fluoro-11-methoxy-4-methyldibenzo[c,f]-2,7-naphthyridine-3,6-diamine]: 388 nM. The figure for `COc1cc2c(cc1N(C)CCCN(C)C)ncc1c(N)nc3c(C)c(N)ccc3c12` [Ib-5, N^10-[3-(dimethylamino)propyl]-11-methoxy-N^10,4-dimethyldibenzo[c,f]-2,7-naphthyridine-3,6,10-triamine] is 1010 nM. In turn, `COc1cc2c(cc1N(C)CCN(C)C)ncc1c(N)nc3c(C)c(N)ccc3c12` [Ib-6, N^10-[2-(dimethylamino)ethyl]-11-methoxy-N^10,4-dimethyldibenzo[c,f]-2,7-naphthyridine-3,6,10-triamine] displayed an IC50 of 1170 nM. In the case of `COc1cc2c(cc1NCCCN1CCN(C)CC1)ncc1c(N)nc3c(C)c(N)ccc3c12` [Ib-7, 11-methoxy-4-methyl-N^10-[3-(4-methylpiperazin-1-yl)propyl]dibenzo[c,f]-2,7-naphthyridine-3,6,10-triamine], the midpoint of inhibition, the IC50, lay at 555 nM. The figure for `COc1cc2c(cc1NCCCN1CCOCC1)ncc1c(N)nc3c(C)c(N)ccc3c12` [Ib-8, 11-methoxy-4-methyl-N^10-(3-morpholin-4-ylpropyl)dibenzo[c,f]-2,7-naphthyridine-3,6,10-triamine] is 290 nM. Take `COc1cc2c(cc1NCCN1CCOCC1)ncc1c(N)nc3c(C)c(N)ccc3c12` [Ib-9, 11-methoxy-4-methyl-N^10-(2-morpholin-4-ylethyl)dibenzo[c,f]-2,7-naphthyridine-3,6,10-triamine]: the midpoint of inhibition, the IC50, lay at 296 nM. For `COc1cc2c(cc1OCCN1CCOCC1)ncc1c(N)nc3c(C)c(N)ccc3c12` [Ib-10, 11-methoxy-4-methyl-10-(2-morpholin-4-ylethoxy)dibenzo[c,f]-2,7-naphthyridine-3,6-diamine], it took 57.5 nM to reach half-maximal inhibition (IC50). In turn, `COc1cc2c(cc1OCCCN1CCOCC1)ncc1c(N)nc3c(C)c(N)ccc3c12` [Ib-11, 11-methoxy-4-methyl-10-(3-morpholin-4-ylpropoxy)dibenzo[c,f]-2,7-naphthyridine-3,6-diamine] displayed an IC50 of 121 nM. The same measure for `COc1cc2c(cc1NCCCN1CCCC1)ncc1c(N)nc3c(C)c(N)ccc3c12` [Ib-12, 11-methoxy-4-methyl-N^10-(3-pyrrolidin-1-ylpropyl)dibenzo[c,f]-2,7-naphthyridine-3,6,10-triamine]: 846 nM.

With `COc1cc2c(cc1NCCN1CCCC1)ncc1c(N)nc3c(C)c(N)ccc3c12` [Ib-13, 11-methoxy-4-methyl-N^10-(2-pyrrolidin-1-ylethyl)dibenzo[c,f]-2,7-naphthyridine-3,6,10-triamine], the IC50 was determined as 3710 nM. `COc1cc2c(cc1NCCN(C)C)ncc1c(N)nc3c(C)c(N)ccc3c12` [Ib-14, N^10-[2-(dimethylamino)ethyl]-11-methoxy-4-methyldibenzo[c,f]-2,7-naphthyridine-3,6,10-triamine]: the IC50 was 2410 nM.
